Reference: patent publication US4731109A, “Herbicidal 2-haloacetanilides” (Monsanto Company, priority 1982, dated 1988)

What was measured:
rape = assay: Greenhouse pre-emergence GR15/GR85 selectivity test; type: in vivo; settings: Table XV
Excerpt: (§1) A good grade of top soil is placed in aluminum pans and compacted to a depth of three-eighths to one-half inch from the top of the pan. On the top of the soil is placed a number of seeds or vegetative propagules of various plant species. The soil required to level fill the pans after seeding or adding vegetative propagules is weighed into a pan. The soil and a known amount of the active ingredient applied in a solvent or as a wettable powder suspension are thoroughly mixed, and used to cover the prepared pans. After treatment, the pans are given an initial overhead irrigation of eater, equivalent to one-fourth inch (0.64 cm) rainfall, then watered by subirrigation as need to give adequate moisture for germination and growth. As an alternative procedure, the overhead irrigation may be omitted. Observations are made about 2-3 weeks after seeding and treatment.
In the discussion and tables of data below, reference is made to herbicide application rates symbolized as "GR15 " and "GR85 "; these rates are given in kilograms per hectare (kg/ha) which are convertible into pounds per acre (lbs/A) by dividing the kg/ha rate by 1.12.
(§2) A further guide to the effectiveness of a chemical as a selective herbicide is the "selectivity factor" ("SF") for a herbicide in given crops and weeds. The selectivity factor is a measure of the relative degree of crop safety and weed injury and is expressed in terms of the GR15 /GR85 ratio, i.e., the GR15 rate for the crop divided by the GR85 rate for the weed, both rates in kg/ha (lb/A). In the tables below, selectivity factors are shown in parenthesis following the GR85 rate for each weed; the symbol "NS" indicates "non-selective". Marginal or undetermined selectivity is indicated by a dash (--).
Additionally, pre-emergence herbicidal data from other tests have established that compounds according to this invention also selectively suppress quackgrass, yellow nutsedge and/or other weeds in one or more of the crops cotton, peanuts, bush beans and/or rape. For example, in Table VI are presented data showing the herbicidal selectivity of the compounds of Examples 1 and 2 against quackgrass in rape and snap beans. Unless otherwise noted; greenhouse tests in Table VI and in other tables below involved herbicide treatments by soil incorporation and an initial overhead irrigation followed by subirrigation as described above.
In another greenhouse test, the compounds of Examples 3-5, 9 and 10 were tested for their herbicidal efficacy against a variety of resistant annual and perennial weeds in rape.

corn = assay: as above; type: in vivo; settings: Table IV
Method in brief: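 Active ingredient mixed into cover soil over seeded pans (pre-emergence soil incorporation), initial overhead irrigation equal to 0.64 cm rainfall, then subirrigation. Scored about 2-3 weeks after seeding; GR15 (crop) and GR85 (weed) rates in kg/ha, selectivity factor = crop GR15 / weed GR85.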

Yellow Nutsedge = assay: as above; type: in vivo; settings: Table IV
Quackgrass [1] = assay: as above; type: in vivo; settings: Table IV
soybeans = assay: Herbicidal effect in a variety of soil types; type: in vivo; settings: Table XVII B
Quackgrass [2] = assay: Herbicidal effect in a variety of soil types; type: in vivo; settings: Table XVII B; for selectivity factor (GR15/GR85): in soybeans
Excerpt: The herbicide treatments were by soil incorporation with seeds planted 0.375 in (0.95 cm) deep, with 0.25 in (0.64 cm overhead irrigation. Observations were made about three weeks after treatment. Selectivity factors are shown in parenthesis.

wild proso millet = assay: Greenhouse pre-emergence GR15/GR85 selectivity test; type: in vivo, wild proso millet (panicum milicaeum); settings: Table XVI
Excerpt: as §1, with “After treatment, the pans are given an initial overhead irrigation of eater, equivalent to one-fourth inch (0.64 cm) rainfall, then watered by subirrigation as need to give adequate moisture for germination and growth.” left out
as §2
(§3) Unless otherwise noted; greenhouse tests in Table VI and in other tables below involved herbicide treatments by soil incorporation and an initial overhead irrigation followed by subirrigation as described above.

alexandergrass = assay: as above; type: in vivo; settings: Table XV; for selectivity factor (GR15/GR85): in rape
Excerpt: as §1, with “After treatment, the pans are given an initial overhead irrigation of eater, equivalent to one-fourth inch (0.64 cm) rainfall, then watered by subirrigation as need to give adequate moisture for germination and growth.” left out
as §2, §3

itchgrass = assay: as above; type: in vivo; settings: Table XVI
Excerpt: as §1, with “After treatment, the pans are given an initial overhead irrigation of eater, equivalent to one-fourth inch (0.64 cm) rainfall, then watered by subirrigation as need to give adequate moisture for germination and growth.” left out
as §2, §3

fall panicum = assay: as above; type: in vivo; settings: Table XVI
Excerpt: as §1, with “After treatment, the pans are given an initial overhead irrigation of eater, equivalent to one-fourth inch (0.64 cm) rainfall, then watered by subirrigation as need to give adequate moisture for germination and growth.” left out
as §2, §3

red rice = assay: as above; type: in vivo; settings: Table XVI
Excerpt: as §1, with “After treatment, the pans are given an initial overhead irrigation of eater, equivalent to one-fourth inch (0.64 cm) rainfall, then watered by subirrigation as need to give adequate moisture for germination and growth.” left out
as §2, §3

shattercane = assay: as above; type: in vivo; settings: Table XVI
Excerpt: as §1, with “After treatment, the pans are given an initial overhead irrigation of eater, equivalent to one-fourth inch (0.64 cm) rainfall, then watered by subirrigation as need to give adequate moisture for germination and growth.” left out
as §2, §3

Texas panicum = assay: as above; type: in vivo; settings: Table XVI
Excerpt: as §1, with “After treatment, the pans are given an initial overhead irrigation of eater, equivalent to one-fourth inch (0.64 cm) rainfall, then watered by subirrigation as need to give adequate moisture for germination and growth.” left out
as §2, §3

seedling johnsongrass = assay: as above; type: in vivo; settings: Table XVI
Excerpt: as §1, with “After treatment, the pans are given an initial overhead irrigation of eater, equivalent to one-fourth inch (0.64 cm) rainfall, then watered by subirrigation as need to give adequate moisture for germination and growth.” left out
as §2, §3

[3] = yellow nutsedge in corn, Replicate #1
[4] = yellow nutsedge in corn, Replicate #2
[5] = yellow nutsedge in soybeans, Replicate #1
[6] = yellow nutsedge in soybeans, Replicate #2
[7] = quackgrass in corn, Replicate #1
[8] = quackgrass in corn, Replicate #2
[9] = quackgrass in soybeans, Replicate #1
[10] = quackgrass in soybeans, Replicate #2

CCCOCN(C(=O)CCl)c1c(C)cccc1C(F)(F)F [Example 3, N--(n-propoxymethyl)-2'-trifluoromethyl-6'-methyl-2-chloroacetanilide]
GR15 Rate (rape): 0.90 Kg/Ha
GR15 (corn; Replicate #1): 0.78 Kg/Ha
GR15 (corn; Replicate #2): 0.73 Kg/Ha
GR85 (Yellow Nutsedge; Replicate #1): 0.11 Kg/Ha
GR85 (Yellow Nutsedge; Replicate #2): 0.21 Kg/Ha
selectivity factor (GR15/GR85) (Yellow Nutsedge; [3]): 7
selectivity factor (GR15/GR85) (Yellow Nutsedge; [4]): 3.5
selectivity factor (GR15/GR85) (Yellow Nutsedge; [5]): 10
selectivity factor (GR15/GR85) (Yellow Nutsedge; [6]): 5
GR85 (Quackgrass [1]; Replicate #1): 0.12 Kg/Ha
GR85 (Quackgrass [1]; Replicate #2): 0.13 Kg/Ha
selectivity factor (GR15/GR85) (Quackgrass [1]; [7]): 6.5
selectivity factor (GR15/GR85) (Quackgrass [1]; [8]): 5.5
selectivity factor (GR15/GR85) (Quackgrass [1]; [9]): 9
selectivity factor (GR15/GR85) (Quackgrass [1]; [10]): 8.5
GR15 (soybeans; Florida muck): > 2.2 Kg/Ha
GR15 (soybeans; Florida sand): 2.0 Kg/Ha
GR15 (soybeans; Wabash silty clay): 2.0 Kg/Ha
GR85 (Quackgrass [2]; Florida muck): 1.1 Kg/Ha
GR85 (Quackgrass [2]; Florida sand): 0.72 Kg/Ha
GR85 (Quackgrass [2]; Wabash silty clay): 0.22 Kg/Ha
selectivity factor (GR15/GR85) (Quackgrass [2]; Florida muck): > 2
selectivity factor (GR15/GR85) (Quackgrass [2]; Florida sand): 2.5
selectivity factor (GR15/GR85) (Quackgrass [2]; Wabash silty clay): 9
GR85 Rate (wild proso millet): 0.27 Kg/Ha
selectivity factor (GR15/GR85) (wild proso millet; in lima beans): 1.8
selectivity factor (GR15/GR85) (wild proso millet; in peanuts): > 4.2
GR85 Rate (alexandergrass): 0.14 Kg/Ha
selectivity factor (GR15/GR85) (alexandergrass): 6.3
GR85 Rate (itchgrass): 0.51 Kg/Ha
selectivity factor (GR15/GR85) (itchgrass; in lima beans): NS (non-selective)
selectivity factor (GR15/GR85) (itchgrass; in peanuts): > 2.2
GR85 Rate (fall panicum): 0.08 Kg/Ha
selectivity factor (GR15/GR85) (fall panicum; in lima beans): 6
selectivity factor (GR15/GR85) (fall panicum; in peanuts): > 14
GR85 Rate (red rice): 0.37 Kg/Ha
selectivity factor (GR15/GR85) (red rice; in lima beans): 1.3
selectivity factor (GR15/GR85) (red rice; in peanuts): > 3
GR85 Rate (shattercane): 0.11 Kg/Ha
selectivity factor (GR15/GR85) (shattercane; in lima beans): 4.5
selectivity factor (GR15/GR85) (shattercane; in peanuts): > 10.2
GR85 Rate (Texas panicum): 0.43 Kg/Ha
selectivity factor (GR15/GR85) (Texas panicum; in lima beans): 1.1
selectivity factor (GR15/GR85) (Texas panicum; in peanuts): > 2.6
GR85 Rate (seedling johnsongrass): 0.23 Kg/Ha
selectivity factor (GR15/GR85) (seedling johnsongrass; in lima beans): 2.1
selectivity factor (GR15/GR85) (seedling johnsongrass; in peanuts): > 4.9

Cc1cccc(C(F)(F)F)c1N(COC(C)C)C(=O)CCl [Example 4, N--(isopropoxymethyl)-2'-trifluoromethyl-6'-methyl-2-chloroacetanilide]
GR15 Rate (rape): > 1.12 Kg/Ha
GR15 (corn; Replicate #1): 1.7 Kg/Ha
GR15 (corn; Replicate #2): 2.0 Kg/Ha
GR85 (Yellow Nutsedge; Replicate #1): 0.28 Kg/Ha
GR85 (Yellow Nutsedge; Replicate #2): 0.22 Kg/Ha
selectivity factor (GR15/GR85) (Yellow Nutsedge; [3]): 6
selectivity factor (GR15/GR85) (Yellow Nutsedge; [4]): 8.5
selectivity factor (GR15/GR85) (Yellow Nutsedge; [5]): 4
selectivity factor (GR15/GR85) (Yellow Nutsedge; [6]): 7.5
GR85 (Quackgrass [1]; Replicate #1): 0.33 Kg/Ha
GR85 (Quackgrass [1]; Replicate #2): 0.18 Kg/Ha
selectivity factor (GR15/GR85) (Quackgrass [1]; [7]): 5
selectivity factor (GR15/GR85) (Quackgrass [1]; [8]): 11
selectivity factor (GR15/GR85) (Quackgrass [1]; [9]): 3
selectivity factor (GR15/GR85) (Quackgrass [1]; [10]): 9.5
GR15 (soybeans; Drummer silty clay): 2.2 Kg/Ha
GR15 (soybeans; Florida muck): > 2.2 Kg/Ha
GR15 (soybeans; Florida sand): 2.2 Kg/Ha
GR15 (soybeans; Ray silt loam): 3.0 Kg/Ha
GR15 (soybeans; Sarpy silty clay): 2.2 Kg/Ha
GR15 (soybeans; Wabash silty clay): 3.0 Kg/Ha
GR85 (Quackgrass [2]; Drummer silty clay): 0.11 Kg/Ha
GR85 (Quackgrass [2]; Florida muck): 0.67 Kg/Ha
GR85 (Quackgrass [2]; Florida sand): 0.25 Kg/Ha
GR85 (Quackgrass [2]; Ray silt loam): 0.13 Kg/Ha
GR85 (Quackgrass [2]; Sarpy silty clay): 0.39 Kg/Ha
GR85 (Quackgrass [2]; Wabash silty clay): 0.24 Kg/Ha
selectivity factor (GR15/GR85) (Quackgrass [2]; Drummer silty clay): 20
selectivity factor (GR15/GR85) (Quackgrass [2]; Florida muck): > 3
selectivity factor (GR15/GR85) (Quackgrass [2]; Florida sand): 9
selectivity factor (GR15/GR85) (Quackgrass [2]; Ray silt loam): 23
selectivity factor (GR15/GR85) (Quackgrass [2]; Sarpy silty clay): 5.5
selectivity factor (GR15/GR85) (Quackgrass [2]; Wabash silty clay): 12.5
GR85 Rate (wild proso millet): 0.47 Kg/Ha
selectivity factor (GR15/GR85) (wild proso millet; in lima beans): > 2.4
selectivity factor (GR15/GR85) (wild proso millet; in peanuts): 2.1
GR85 Rate (alexandergrass): 0.42 Kg/Ha
selectivity factor (GR15/GR85) (alexandergrass): > 2.7
GR85 Rate (itchgrass): 0.50 Kg/Ha
selectivity factor (GR15/GR85) (itchgrass; in lima beans): > 2.2
selectivity factor (GR15/GR85) (itchgrass; in peanuts): 2
GR85 Rate (fall panicum): 0.13 Kg/Ha
selectivity factor (GR15/GR85) (fall panicum; in lima beans): > 8.6
selectivity factor (GR15/GR85) (fall panicum; in peanuts): 7.5
GR85 Rate (red rice): 0.42 Kg/Ha
selectivity factor (GR15/GR85) (red rice; in lima beans): > 2.7
selectivity factor (GR15/GR85) (red rice; in peanuts): 2.3
GR85 Rate (shattercane): 0.51 Kg/Ha
selectivity factor (GR15/GR85) (shattercane; in lima beans): > 2.2
selectivity factor (GR15/GR85) (shattercane; in peanuts): 1.9
GR85 Rate (Texas panicum): 0.56 Kg/Ha
selectivity factor (GR15/GR85) (Texas panicum; in lima beans): > 2
selectivity factor (GR15/GR85) (Texas panicum; in peanuts): 1.8
GR85 Rate (seedling johnsongrass): 0.51 Kg/Ha
selectivity factor (GR15/GR85) (seedling johnsongrass; in lima beans): > 2.2
selectivity factor (GR15/GR85) (seedling johnsongrass; in peanuts): 1.9
